Assay results: article PMC10660337, “Mutate and Conjugate: A Method to Enable Rapid In-Cell Target Validation” (ACS Chemical Biology, 2023)

System: T1, StrepII-tagged BRD4(1)^L94C or BRD4(1)^WT in HEK293T cells
T1 construct: the L94C mutation in the first bromodomain of BRD4 [BRD4(1)]; StrepII; expressed in transfected cells; host or cells: HEK293T
Test: Immunoprecipitation of StrepII-tagged bromodomains after in-cell labeling
Format: cell-based, human
Conditions: 10 µM probe, 1 h, anti-StrepII pull-down, in-gel fluorescence
Protocol: Compound engagement with BRD4(1)^L94C was further validated by using an immunoprecipitation (IP) assay (Figure S22). Here, transfected HEK293T cells expressing StrepII-tagged BRD4(1)^L94C or StrepII-tagged BRD4(1)^WT were incubated with compound 42 before being lysed. The StrepII-tagged bromodomains were then pulled down using anti-StrepII antibodies, and the samples were separated by SDS-PAGE for analysis. […]
reaction mix was taken and 8 µL of Lamelli buffer added, and the samples denatured by heating at 95 °C for 10 min. Samples were separated by gel electrophoresis on NuPAGE™ 4–12%, Bis-Tris precast polyacrylamide gels (Thermofisher). Following electrophoresis, gels were stained for 15 min with InstantBlueTM Coomasie® stain (Abcam), destained, and imaged using Bio-rad molecular imager.
Bio-rad Image Lab 6.1 was used to process the data.
In-cell target engagement
In-cell labeling by clickable probes […]
Gels were imaged for fluorescence using Bio-rad molecular imager and then stained for 15 min with InstantBlueTM Coomasie® stain (Abcam), destained, and imaged using Bio-rad molecular imager. […]
Transfected HEK293T cells at ~90% confluency were incubated for 30 min with a DMSO control or varying concentrations of OXFBD04 diluted in Opti-MEM media. […] Cells were then harvested, processed, and analysed using the previously described protocol above. […]

**Q.** How did the “Engagement of StrepII-tagged BRD4(1)^L94C versus BRD4(1)^WT by immunoprecipitation” value turn out when `C#CCOc1cc(NC(=O)C=C)ccc1N1CCCC1=O` [Compound 42] was run?
**A.** selective engagement of BRD4(1)^L94C
